Source: patent publication US8952024B2, “Herbicidal pyrimidone derivatives” (E I du Pont de Nemours and Company, priority 2009, dated 2015)

Tests used:
Type in all cases: in vivo
[1] = tested on: barnyardgrass (Echinochloa crus-galli); test: Test A pre-/postemergence plant response
How it was run: (§1)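 Approximately ten days after concurrent pre- and postemergence spraying in a greenhouse, plants were compared with untreated controls and rated visually for injury, 0 = no effect to 100 = complete control. Preemergence spray was directed onto loam/sand soil; postemergence targeted 1–2 leaf seedlings.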

corn (Zea mays) = test: Test A pre-/postemergence plant response
How it was run: as §1

[2] = tested on: giant foxtail (Setaria faberii); test: Test A pre-/postemergence plant response
How it was run: as §1

[3] = tested on: large crabgrass (Digitaria sanguinalis); test: Test A pre-/postemergence plant response
How it was run: as §1

[4] = tested on: morningglory (Ipomoea spp.); test: Test A pre-/postemergence plant response
How it was run: as §1

[5] = tested on: pigweed (Amaranthus retroflexus); test: Test A pre-/postemergence plant response
How it was run: as §1

[6] = tested on: velvetleaf (Abutilon theophrasti); test: Test A pre-/postemergence plant response
How it was run: as §1

[7] = tested on: wheat (Triticum aestivum); test: Test A pre-/postemergence plant response
How it was run: as §1

[8] = tested on: windgrass (Apera spica-venti); test: Test B postemergence plant response; conditions: for Plant response rating, Windgrass: Postemergence
How it was run: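 Visual ratings from 0 (no effect) to 100 (complete control), made against controls 13–15 days after treatment, kept in a greenhouse. Compounds were applied postemergence to potted plants at the 1- to 4-leaf stage (2–18 cm).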

[9] = tested on: barnyardgrass (Echinochloa crus-galli); test: Test B flooded paddy test
How it was run: (§2)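 Greenhouse-held for 13 to 15 days, treated pots were compared visually with controls and scored 0–100 (0, no effect). Treatment had been made into paddy water kept at 3 cm above the soil, with plants at the 2-leaf stage.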

[10] = tested on: ducksalad (Heteranthera limosa); test: Test B flooded paddy test
How it was run: as §2

rice (Oryza sativa) = test: Test B flooded paddy test
How it was run: as §2

[11] = tested on: umbrella sedge (Cyperus difformis); test: Test B flooded paddy test
How it was run: as §2

[12] = Postemergence, 125 g ai/ha, 0 to 100 scale where 0 is no effect and 100 is complete control
[13] = Postemergence, 500 g ai/ha, 0 to 100 scale, 0 = no effect, 100 = complete control, approx. ten days
[14] = Preemergence, 125 g ai/ha, 0 to 100 scale, 0 = no effect, 100 = complete control
[15] = Preemergence, 500 g ai/ha, visual injury, 0 to 100 scale (0 no effect, 100 complete control), approx. ten days
[16] = 250 g ai/ha, flooded paddy test, visual rating on 0 to 100 scale (0 no effect, 100 complete control) after 13 to 15 days
[17] = Flood (flooded paddy test), 62 g ai/ha, scale of 0 to 100 where 0 is no effect and 100 is complete control, 13 to 15 days

SMILES: CCn1c(-c2cc(F)cc(F)c2)ncc(C(=O)C2=C(O)CCCC2=O)c1=O [Compound 122]
- Plant response rating, Barnyardgrass [1, 12]: 60
- Plant response rating, Barnyardgrass [1, 13]: 80
- Plant response rating, Barnyardgrass [1, 14]: 30
- Plant response rating, Barnyardgrass [1, 15]: 100
- Plant response rating, Corn (corn (Zea mays); [12]): 0
- Plant response rating, Corn (corn (Zea mays); [13]): 30
- Plant response rating, Corn (corn (Zea mays); [14]): 0
- Plant response rating, Corn (corn (Zea mays); [15]): 0
- Plant response rating, Foxtail, Giant [2, 12]: 70
- Plant response rating, Foxtail, Giant [2, 13]: 80
- Plant response rating, Foxtail, Giant [2, 14]: 30
- Plant response rating, Foxtail, Giant [2, 15]: 100
- Plant response rating, Crabgrass, Large [3, 12]: 70
- Plant response rating, Crabgrass, Large [3, 13]: 90
- Plant response rating, Crabgrass, Large [3, 14]: 90
- Plant response rating, Crabgrass, Large [3, 15]: 100
- Plant response rating, Morningglory [4, 12]: 90
- Plant response rating, Morningglory [4, 13]: 100
- Plant response rating, Morningglory [4, 14]: 40
- Plant response rating, Morningglory [4, 15]: 80
- Plant response rating, Pigweed [5, 12]: 100
- Plant response rating, Pigweed [5, 13]: 100
- Plant response rating, Pigweed [5, 14]: 100
- Plant response rating, Pigweed [5, 15]: 100
- Plant response rating, Velvetleaf [6, 12]: 100
- Plant response rating, Velvetleaf [6, 13]: 100
- Plant response rating, Velvetleaf [6, 14]: 100
- Plant response rating, Velvetleaf [6, 15]: 100
- Plant response rating, Wheat [7, 12]: 0
- Plant response rating, Wheat [7, 13]: 50
- Plant response rating, Wheat [7, 14]: 0
- Plant response rating, Wheat [7, 15]: 40
- Plant response rating, Windgrass ([8]; 16 g ai/ha, 0 to 100 scale): 5
- Windgrass plant response rating (0 to 100 scale) ([8]; 62 g ai/ha, postemergence, 0 is no effect, 100 is complete control, 13 to 15 days): 30
- Plant response rating, Windgrass ([8]; 31 g ai/ha, 0 to 100 scale (0 no effect, 100 complete control)): 5
- Plant response rating, Windgrass ([8]; 125 g ai/ha, scale 0 to 100 (0 no effect, 100 complete control)): 50
- Plant response rating, Flood, Barnyardgrass [9, 16]: 40
- Plant response rating, Barnyardgrass [9, 17]: 20
- Plant response rating, Flood, Ducksalad [10, 16]: 0
- Plant response rating, Ducksalad [10, 17]: 0
- Plant response rating, Flood, Rice (rice (Oryza sativa); [16]): 15
- Plant response rating, Rice (rice (Oryza sativa); [17]): 0
- Plant response rating, Flood, Sedge, Umbrella [11, 16]: 45
- Plant response rating, Sedge, Umbrella [11, 17]: 20
